Reference: patent US6358736B1, “Method for increasing the antigen presenting ability of leukemia cells” (The United States of America as represented by the …, priority 1995, dated 2002)

How the values were obtained:
[1] = tested on: human peripheral blood monocytes; experiment: FACS analysis of cell surface markers on cultured peripheral blood monocytes; type: cell-based
[2] = tested on: monocytes cocultured with autologous CD8+ T cells; experiment: Autologous CD8+ T cell sensitization to peptide-pulsed monocytes (interferon gamma secretion); type: cell-based, human
Description: Monocyte-rich elutriation fractions from healthy HLA-A2.1 donors were either untreated or treated with ionophore A23187 750 ng/ml for 40 hours, then pulsed with either the M1 influenza-derived peptide or the MART1 melanoma-derived peptide (the M1 peptide is a “recall antigen” for all HLA-A2.1^pos individuals, whereas the MART1 peptide is usually a “recall antigen” only for HLA-A2.^pos patients with melanoma). Antigen-pulsed monocytes were cocultured with freshly prepared autologous CD8^+ T cells for 8-10 days; the T cells were then harvested and cocultured with peptide-pulsed HLA-A2.1 positive T2 stimulator cells which had been pulsed 2 hours with 1 μg/ml of either the MART1 peptide, the influenza M1 derived peptide, or an irrelevant HIV peptide to assess whether specific sensitization to FLU or MART1 peptides was attained.
After 40 hours, the cells were pulsed with a tumor derived HER2neu (369-377) peptide for two hours, harvested, then FACS analyzed or cocultured for 8-10 days with naive autologous CD8^+ T cells to determine whether rapid sensitization to the HER2neu peptide could be achieved.

monocytes = experiment: Calcium-chelation luminescence spectrophotometry of intracellular calcium flux; type: cell-based, human; details: indol-loaded monocytes; calcium ionophore 180-750 ng/ml
Description: Calcium-chelation luminescence spectrophotometry was utilized to measure intracellular calcium fluxes in monocytes. Monoytes were incubated with 5 uM/ml indol, a calcium chelating agent which emits fluorescence at different wavelengths (405 or 480 nm) depending on whether or not it is bound to cycloplasmic calcium. Increased calcium mobilization causes relative shifts in emission from one wavelength to the other. After 30 minute incubation with indol, monocytes were washed, pulsed with a variety of agents such as calcium ionophore, virus, f-MET-LEU-PHE, or LPS. To measure calcium fluxes at subsequent time intervals, cells were stimulated with a 355 nm wavelength beam, and fluorescence emission measured at 405 and 480 nm.

[3] = tested on: T lymphocyte subpopulation within the PBMC; experiment: FACS analysis of T lymphocyte subpopulation in unfractionated PBMC; type: cell-based, human; details: A23187 750 mg/ml, 40 hours
Description: (§1) PBMC were prepared by leukapheresis and Ficoll-Hypaque and placed in culture. Since the cells were never elutriated and no adherence step was performed, these cultures included large numbers of T, B, and NK lymphocytes as well as monocytes. The medium was our standard RPMI 10% human AB serum with antibiotics including amphotericin B. Cells were either untreated or treated for 40 hours with calcium ionophore A23187 […]. Cells were then harvested and analyzed by FACS. Cells were stained with FITC conjugated anti-CD3, anti-CD40, anti-CD57, anti-CD14, or the combination; in addition cells were stained with PE conjugated control antibodies, anti-B7.1, anti-B7.2, etc. In this way the effect of calcium ionophore treatment on each parameter could be clearly delineated.

[4] = tested on: B cell subpopulation within the PBMC; experiment: FACS analysis of B cell subpopulation in unfractionated PBMC; type: cell-based, human; details: A23187 750 mg/ml, 40 hours
Description: as §1

[5] = tested on: NK subpopulation within the PBMC; experiment: FACS analysis of NK subpopulation in unfractionated PBMC; type: cell-based, human; details: A23187 750 mg/ml, 40 hours
Description: as §1

[6] = tested on: adherence-enriched monocytes; experiment: FACS analysis of monocytes enriched by Ficoll separation and adherence; type: cell-based, human; details: A23187 750 ng/ml, 20 hours
Description: Blood was drawn in heparinized syringes (approximately 80 cc), diluted 1:1 with normal saline, layered on Ficoll-Hypaque, and centrifuged for 20 minutes to remove neutrophils and red blood cells. The peripheral blood mononuclear cell (PBMC) containing interface were washed, counted, and added to 24 well plates, 2 cc culture medium per well, 2×10^7 cells per well.
After 60 minutes the non adherent cells were removed, leaving a half confluent surface of adherent cells in each well (i.e., monocyte enrichment by adherence) Wells were either untreated or treated with calcium ionophore A23 187 750 ng/ml, and harvested 20 hours later.

[7] = tested on: bone marrow-derived CD34pos cells; experiment: FACS and morphologic analysis of cultured bone marrow-derived CD34pos cells; type: cell-based, human
Description: Bone marrow-derived highly purified CD34^pos cells were cultured for six days in medium containing 20% fetal calf serum, rhSCF, rhGM-CSF, and rhTNF-alpha. […] Cells were centrifuged and replated in 24 well plates in fresh medium containing rhGM-CSF, and rhTNF-alpha but not rhSCF. In addition, individual wells were treated with varied doses of ionophore A23187. Wells were harvested 1, 2, and 6 days subsequently, subjected to FACS analysis or studied morphologically for DC characteristics utilizing polylysine-coated glass slides and Nomarski optics.

HUVEC = experiment: FACS analysis of umbilical vein endothelial cells; type: cell-based, human
Description: Endothelial cells were previously isolated from human umbilical vein (HUVEC), then cultured in IMEM with 20% fetal calf serum and rhEGF ([…]). The cells in this experiment had undergone four previous passages to confluence and were trypsinized and reseeded in T25 flasks. After four days culture to reachieve confluence individual flasks were treated with several concentrations of calcium ionophore (180, 375 and 750 ng/ml). Two days later, cells were harvested by trypsinization and analyzed.

HL-60 cells = experiment: FACS analysis of cell surface markers on HL-60 cells; type: cell-based, human; details: optimal doses, within 20 hours
[8] = as E78, vs expression prior to culture
[9] = calcium-free RPMI and dialyzed serum
[10] = within 18 hours of treatment initiation

Q: Which results are given for `CNc1ccc2oc(C[C@H]3O[C@@]4(CC[C@H]3C)O[C@H]([C@H](C)C(=O)c3ccc[nH]3)[C@H](C)C[C@H]4C)nc2c1C(=O)O` [A23187]?
A: optimal concentration for DC differentiation of monocytes ([1]; 10% FCS): 180 to 375 ng/mL; CD14 expression downregulated ([1]; 20 hours, 10% AB serum, amphotericin B omitted, low endotoxin, A23187 750 ng/ml or cytokines (rhIL4 1000 u/ml; +rhGM-CSF 100 ng/ml; +rhTNF-alpha 100 u/ml)): 90%; surface marker expression in purified monocyte and DC cultures ([1]; A23187 750 ng/ml, 40 hours): upregulation of B7.1, B7.2, ICAM-1., HLA-DR, HLA-ABC, CD40, and CD83; surface marker expression of purified (>98%) CD14pos monocytes vs prepurified fractions ([1]; A23187 750 ng/ml, 40 hours): downregulated CD14, and upregulated B7.1, B7.2, ICAM-1, HLA-DR, HLA-ABC, CD40 and CD83 equivalently; activation and dendritic cell phenotypic conversion of pooled monocyte plus DC fractions ([1]; added at the beginning of a 24-48 hr culture period): uniform activation and dendritic cell phenotypic conversion; B7.1 expression increase [1, 8]: 14 fold; B7.2 expression increase [1, 8]: 7.5 fold; CD83 expression increase [1, 8]: 8.7 fold; HLA-ABC expression increase [1, 8]: 3.0 fold; HLA-DQ expression increase [1, 8]: 3.4 fold; HLA-DR increase [1, 8]: 2.9 fold; suppression of ionophore-induced B7.1 upregulation [1, 9]: 100%; suppression of ionophore-induced CD14 downregulation [1, 9]: 53%; optimal concentration for DC differentiation of monocytes ([1]; media with 5% AB serum): 375 to 750 ng/mL; CD40 expression ([1]; more uniform by 40 hours of treatment): Modest upregulation of CD40; optimal concentration for DC differentiation of monocytes ([1]; serum free media): 45 to 90 ng/mL; morphology by electron microscopy ([1]; within 20-40 hours of treatment): markedly increased endoplasmic reticulum, lysosomal and Golgi content; B7.1 (CD80) expression [1, 10]: Variable levels of de novo expression of B7.1 (CD80); B7.2 (CD86) expression [1, 10]: marked upregulation of B7.2 (CD86); CD83 expression [1, 10]: de novo and essentially uniform expression; cell surface CD14 expression [1, 10]: marked downregulation of cell surface CD14; stimulation of autologous T cell response to recall antigen M1 influenza peptide, vs untreated monocytes ([2]; A23187 750 ng/ml, 40 hours, HLA-A2.1 donors): equally able; sensitization of autologous T cells to MART1 peptide ([2]; A23187 750 ng/ml, 40 hours, eight normal donors): in every instance; T cell sensitization to HER2neu (369-377) peptide ([2]; monocytes treated 40 hours, majority of patients): could not be achieved; intracellular calcium flux / mobilization (monocytes): marked sustained monocyte mobilization; B7.2 upregulation over culture without ionophore [3]: 10 fold; CD40 upregulation [3]: 4 fold; HLA-DR upregulation [3]: 6 fold; ICAM-1 upregulation [3]: 3.3 fold; B7.1 and B7.2 expression [4]: a subpopulation of B cells developed marked B71 and B72 expression; upregulation of surface markers [5]: negligible upregulation of surface markers; B7.1 and CD83 expression [6]: de novo B7.1 and CD83 expression; B7.2, HLA-DR and CD40 expression [6]: upregulated B72, HLA-DR, and CD40 expression; CD14 expression [6]: uniform CD14 downregulation; increase in purity of cells with activated myeloid dendritic cell phenotype at final harvest [7]: approximately six; CD14 expression ([7]; 375-750 ng/ml, within 20 hours): marked CD14 downregulation; cells with marked upregulation of B7.1, B7.2, ICAM-1, CD83, CD40 and CD1a ([7]; 375-750 ng/ml, within 20 hours): > 85 % of cells; increase in yield of cells with activated myeloid dendritic cell phenotype vs wells without ionophore ([7]; absolute numbers of cells recovered): approximately three; optimal concentration for dendritic cell immunophenotype ([7]; within 20 hours of treatment): 375 to 750 ng/mL; morphology ([7]; within 40 hours of treatment): virtually all cells manifested dendritiform morphology; ICAM-1 and CD40 expression (HUVEC; 375 and 750 ng/ml, two days): upregulated ICAM-1 and CD40 expression; HLA-ABC expression (HUVEC; two days): unchanged; B7.1, B7.2, HLA-DR and CD83 expression (HUVEC; with or without ionophore treatment): failed to express detectable B7.1, B7.2, HLA-DR or CD83; expression of CD83, ICAM-1, B7.1 and B7.2 (HL-60 cells): uniform de novo expression of CD83, ICAM-1, B7.1, and B7.2
